Earlier results on 1 substance are cited in patent publication US10111933B2, “Use of growth hormone fragments” (Metabolic Pharmaceuticals Pty Ltd, priority 2011, dated 2018).

This data set deals with C57Bl/6J (Ob/Ob) mouse. Particulars: cited from earlier work.

Take “hGH 177-191: synthetic peptide corresponding to amino acid residues 177-191 of human growth hormone sequence (LRIVQCRSVEGSCGF; UniProt P01241 203-217, looked up, fragment)”: the adipose tissue mass entry is “reduce” and the body weight gain result was “reduce”.
